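Briefly, cells in 96-well plates were exposed to five compound concentrations for 48 h, and endpoints were estimated by linear interpolation. The concentration for 50% growth inhibition is given as GI50. TGI is the concentration that stops growth completely.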
How the values were obtained:
Test in all cases: NCI anticancer screen, dose series, 48 h; in the data active means GI50 below about 0.43 µM; inactive means the rest
U251 CNS = system: U251 CNS
CAKI-1 renal = system: CAKI-1 renal
HCT-15 colon = system: HCT-15 colon
HOP-62 NSCLC = system: HOP-62 NSCLC
UACC-62 melanoma = system: UACC-62 melanoma
IGROV1 ovarian = system: IGROV1 ovarian
MCF7 breast = system: MCF7 breast
ACHN renal = system: ACHN renal
MDA-MB-231 breast = system: MDA-MB-231 breast
SNB-19 CNS = system: SNB-19 CNS

N#Cc1cc2c(cc1Cl)SC(=Nc1ccccc1)N(S(=O)(=O)c1ccc(Br)s1)S2(=O)=O
37.3 µM: TGI (ACHN renal)
42.5 µM: TGI (U251 CNS)
38.8 µM: TGI (HCT-15 colon)
36.3 µM: TGI (UACC-62 melanoma)
31.1 µM: TGI (IGROV1 ovarian)
inactive: GI50 (U251 CNS) 19.4 µM | GI50 (CAKI-1 renal) 17.5 µM | GI50 (HCT-15 colon) 17.9 µM | GI50 (HOP-62 NSCLC) 19.1 µM | GI50 (UACC-62 melanoma) 20.8 µM | GI50 (IGROV1 ovarian) 12.8 µM | GI50 (MCF7 breast) 13.6 µM | GI50 (ACHN renal) 19.7 µM | GI50 (MDA-MB-231 breast) 22.8 µM
39.5 µM: TGI (MCF7 breast)
33.8 µM: TGI (CAKI-1 renal)
35.9 µM: TGI (HOP-62 NSCLC)
42.1 µM: TGI (MDA-MB-231 breast)

CC1=C2C3OC(=O)C(C)C3C(O)C[C@@]2(C)C(=O)CC1 (some centres not stated)
> 100 µM: TGI (U251 CNS) | TGI (CAKI-1 renal) | TGI (SNB-19 CNS) | TGI (HCT-15 colon) | TGI (HOP-62 NSCLC) | TGI (UACC-62 melanoma) | TGI (IGROV1 ovarian) | TGI (ACHN renal)

C/C(=N\Nc1n[nH]c(=S)n1N)c1c(O)cc(C)oc1=O
> 100 µM: TGI (U251 CNS) | TGI (CAKI-1 renal) | TGI (SNB-19 CNS) | TGI (HCT-15 colon) | TGI (HOP-62 NSCLC) | TGI (UACC-62 melanoma) | TGI (ACHN renal)

CCSc1nc(N)c2cnn(CC)c2n1
inactive: GI50 (U251 CNS) 4.12 µM | GI50 (CAKI-1 renal) 4.63 µM | GI50 (SNB-19 CNS) 30.2 µM | GI50 (HCT-15 colon) 6.21 µM | GI50 (HOP-62 NSCLC) 20.1 µM | GI50 (UACC-62 melanoma) 4.8 µM | GI50 (IGROV1 ovarian) 2.14 µM | GI50 (MCF7 breast) 16.6 µM | GI50 (MDA-MB-231 breast) 2.08 µM
56.3 µM: TGI (CAKI-1 renal)
24.5 µM: TGI (UACC-62 melanoma)
79 µM: TGI (MCF7 breast)
9.13 µM: TGI (IGROV1 ovarian)
80.7 µM: TGI (HOP-62 NSCLC)
7.29 µM: TGI (MDA-MB-231 breast)
86 µM: TGI (U251 CNS)
> 100 µM: TGI (SNB-19 CNS)
25.3 µM: TGI (HCT-15 colon)

O=C1C(=Cc2ccc(F)cc2)C(=O)c2ccccc21
> 100 µM: TGI (U251 CNS) | TGI (CAKI-1 renal) | TGI (SNB-19 CNS) | TGI (HCT-15 colon) | TGI (HOP-62 NSCLC) | TGI (UACC-62 melanoma) | TGI (IGROV1 ovarian) | TGI (ACHN renal)

NC(=O)c1nc(-c2ccc(Cl)c(Cl)c2)nc2ccccc12
> 100 µM: TGI (U251 CNS) | TGI (CAKI-1 renal) | TGI (SNB-19 CNS) | TGI (HCT-15 colon) | TGI (HOP-62 NSCLC) | TGI (UACC-62 melanoma) | TGI (IGROV1 ovarian) | TGI (ACHN renal)

CCOC(=O)CN1C(=O)C(=O)N(c2ccc(OC)c3ccccc23)C1=O
> 100 µM: TGI (U251 CNS) | TGI (CAKI-1 renal) | TGI (SNB-19 CNS) | TGI (HCT-15 colon) | TGI (HOP-62 NSCLC) | TGI (UACC-62 melanoma) | TGI (MCF7 breast) | TGI (ACHN renal)

COc1cc(CCc2ccncc2)cc(OC)c1OC
> 100 µM: TGI (U251 CNS) | TGI (CAKI-1 renal) | TGI (SNB-19 CNS) | TGI (HCT-15 colon) | TGI (HOP-62 NSCLC) | TGI (UACC-62 melanoma) | TGI (IGROV1 ovarian) | TGI (ACHN renal)

O=C(CCc1cc(-c2ccc(F)cc2)n[nH]1)N(Cc1ccccc1)Cc1ccccc1
> 100 µM: TGI (U251 CNS) | TGI (CAKI-1 renal) | TGI (SNB-19 CNS) | TGI (HCT-15 colon) | TGI (HOP-62 NSCLC) | TGI (UACC-62 melanoma) | TGI (IGROV1 ovarian) | TGI (ACHN renal)

Cc1cn2cc(-c3ccc4c(c3)CC(=O)N4)nc2s1
inactive: GI50 (U251 CNS) > 100 µM | GI50 (CAKI-1 renal) > 100 µM | GI50 (SNB-19 CNS) > 100 µM | GI50 (HCT-15 colon) 67 µM | GI50 (HOP-62 NSCLC) 64.7 µM | GI50 (UACC-62 melanoma) 33.7 µM | GI50 (IGROV1 ovarian) > 100 µM | GI50 (ACHN renal) 49.7 µM | GI50 (MDA-MB-231 breast) > 100 µM
> 100 µM: TGI (U251 CNS) | TGI (CAKI-1 renal) | TGI (SNB-19 CNS) | TGI (HCT-15 colon) | TGI (HOP-62 NSCLC) | TGI (UACC-62 melanoma) | TGI (IGROV1 ovarian) | TGI (ACHN renal) | TGI (MDA-MB-231 breast)

C=CCO[C@H]1CC[C@@]2(C)C(CC[C@]3(C)C2CC=C2[C@@H]4[C@@H](C)C(C)CC[C@]4(C(=O)O)CCC23C)C1(C)C (some centres not stated)
41 µM: TGI (HOP-62 NSCLC)
29.8 µM: TGI (ACHN renal)
33.2 µM: TGI (CAKI-1 renal)
28.3 µM: TGI (UACC-62 melanoma)
30.3 µM: TGI (U251 CNS)
32.2 µM: TGI (SNB-19 CNS)
33.9 µM: TGI (IGROV1 ovarian)

C=CCCC(=O)CC(=O)OCc1ccccc1
> 100 µM: TGI (U251 CNS) | TGI (CAKI-1 renal) | TGI (SNB-19 CNS) | TGI (HCT-15 colon) | TGI (HOP-62 NSCLC) | TGI (UACC-62 melanoma) | TGI (IGROV1 ovarian) | TGI (ACHN renal)

Oc1ccc(O)c(-n2cccn2)c1-n1cccn1
> 100 µM: TGI (U251 CNS) | TGI (CAKI-1 renal) | TGI (SNB-19 CNS) | TGI (HCT-15 colon) | TGI (HOP-62 NSCLC) | TGI (UACC-62 melanoma) | TGI (IGROV1 ovarian) | TGI (ACHN renal)

COC(=N)CCCl
> 100 µM: TGI (U251 CNS) | TGI (CAKI-1 renal) | TGI (SNB-19 CNS) | TGI (HCT-15 colon) | TGI (HOP-62 NSCLC) | TGI (UACC-62 melanoma) | TGI (IGROV1 ovarian) | TGI (MCF7 breast) | TGI (ACHN renal)

CCCCCC/C(CC(=O)CCC(=O)NCCc1ccccc1)=N\Nc1ccc([N+](=O)[O-])cc1[N+](=O)[O-]
> 100 µM: TGI (U251 CNS) | TGI (CAKI-1 renal) | TGI (SNB-19 CNS) | TGI (HCT-15 colon) | TGI (HOP-62 NSCLC) | TGI (UACC-62 melanoma) | TGI (IGROV1 ovarian) | TGI (ACHN renal)

N#CC(C#N)C(c1ccccc1)c1ccccc1
> 100 µM: TGI (U251 CNS) | TGI (CAKI-1 renal) | TGI (SNB-19 CNS) | TGI (HCT-15 colon) | TGI (HOP-62 NSCLC) | TGI (UACC-62 melanoma) | TGI (IGROV1 ovarian) | TGI (ACHN renal)

O=C(N/N=C/c1ccc(N(CCCl)CCCl)cc1)c1ccc(C(=O)N/N=C/c2ccc(N(CCCl)CCCl)cc2)cc1
> 100 µM: TGI (CAKI-1 renal) | TGI (SNB-19 CNS) | TGI (HCT-15 colon) | TGI (HOP-62 NSCLC) | TGI (IGROV1 ovarian) | TGI (MCF7 breast) | TGI (ACHN renal) | TGI (MDA-MB-231 breast)
active: GI50 (U251 CNS) 0.346 µM | GI50 (MCF7 breast) 0.38 µM
inactive: GI50 (CAKI-1 renal) 72.3 µM | GI50 (SNB-19 CNS) 38.6 µM | GI50 (HCT-15 colon) > 100 µM | GI50 (HOP-62 NSCLC) 0.653 µM | GI50 (IGROV1 ovarian) 20.7 µM | GI50 (ACHN renal) 6.8 µM | GI50 (MDA-MB-231 breast) 4.73 µM
17.1 µM: TGI (U251 CNS)

Cc1nc(-n2nc(-c3ccccc3)cc2-c2ccccc2)sc1C(=O)CC(=O)C(=O)Nc1ccc(O)cc1
> 100 µM: TGI (U251 CNS) | TGI (CAKI-1 renal) | TGI (SNB-19 CNS) | TGI (HCT-15 colon) | TGI (HOP-62 NSCLC) | TGI (UACC-62 melanoma) | TGI (IGROV1 ovarian) | TGI (ACHN renal)

CN(C)C(=S)/N=c1\ss/c(=N\S(=O)(=O)c2ccccc2)n1C
> 100 µM: TGI (U251 CNS) | TGI (CAKI-1 renal) | TGI (SNB-19 CNS) | TGI (HCT-15 colon) | TGI (HOP-62 NSCLC) | TGI (UACC-62 melanoma) | TGI (IGROV1 ovarian) | TGI (ACHN renal)

CCN1CCC(O)(/C=C/c2ccccc2)C(C(=O)/C=C/c2ccccc2)C1 (configuration not stated)
3.23 µM: TGI (ACHN renal)
3.78 µM: TGI (IGROV1 ovarian)
28.4 µM: TGI (HOP-62 NSCLC)
3.49 µM: TGI (UACC-62 melanoma)
6.44 µM: TGI (CAKI-1 renal)
22.3 µM: TGI (SNB-19 CNS)
6.67 µM: TGI (U251 CNS)
3.84 µM: TGI (HCT-15 colon)

COC(=O)C#CC(N)=O
> 100 µM: TGI (U251 CNS) | TGI (SNB-19 CNS) | TGI (HCT-15 colon) | TGI (HOP-62 NSCLC) | TGI (UACC-62 melanoma) | TGI (IGROV1 ovarian) | TGI (ACHN renal)
> 67.1 µM: TGI (CAKI-1 renal)
